In patent US10118954B2, “Apelin analogues” (University of Ulster, priority 2014, dated 2018):

Tests used:
[1] = Degradation of apelin peptides by plasma from fasted normal NIH Swiss mice (rp-HPLC, MALDI-TOF MS); type: in vitro ADME
Description: Degradation of Apelin Peptides by Plasma from Fasted Normal NIH Swiss Mice […] The enzymatic reaction was stopped by adding 50 μl of 10% TFA (0.1% v/v; Sigma-Aldrich Ltd, (Poole, Dorset, UK) and frozen at -20° C. until separation. The terminated reaction products were then applied to an analytical Vydac C-8 column (4.6×150 mm; Phenomenex, Macclesfield, Cheshire, UK) for rp-HPLC analysis. The absorbance was monitored at 214 nm using a […] UV 2000 detector (Thermoquest Limited, Manchester, UK) and the traces were recorded by Thermo Electron ChromQuest data collection software (version 4). HPLC peak fractions were collected manually and subjected to MALDI-TOF mass spectrometry for peptide identification. Degradation profile of various apelin-13 related analogues: plasma incubations (4 h) were separated on a Vydac C-8 analytical HPLC column and all peaks were collected prior to analysis by MALDI-TOF mass spectrometry. Degradation fragments, actual molecular weights (Mr) and retention times (RT) are shown. Theoretical molecular weights of each fragment are shown in brackets. […] Degradation fragments, theoretical molecular weights (Mr) and retention times (RT) are shown. Theoretical molecular weights of each fragment are shown in brackets.

[2] = system: NIH Swiss mice fed a high-fat diet for 150 days; test: Acute and delayed i.p. glucose tolerance test, blood glucose and plasma insulin; type: in vivo; conditions: for Effect on the glucose lowering properties of (Tyr^13)apelin-13 and apelin-13-amide: administered in combination, each 25 nmol/kg
Description: Plasma glucose and plasma insulin concentrations were measured prior to and after i.p. administration of glucose alone (18 mmol/kg body weight), or in combination with apelin analogues (25 nmol/kg body weight) in 18 h fasted mice fed a high-fat diet for 150 days. Values represent mean±SEM for eight mice (n=8). *P<0.05, **P<0.01 and ***P<0.001 compared to glucose alone. FIG. 6 illustrates effect of i.p. administration of glucose alone (18 mmol/kg body weight), ([…])apelin-13 and ([…])apelin-13 alone or in combination (each 25 nmol/kg body weight) on (A) blood glucose and (B) plasma insulin in 18 h fasted mice fed a high-fat diet for 150 days. Values represent mean±SEM for eight mice (n=8). *p<0.05 and **p<0.01 compared to glucose alone, ^+P<0.05 compared to ([…])apelin-13, ^∇P<0.05 and ^∇∇P<0.01 compared to ([…])apelin-13. FIG. 10 illustrates tests conducted 2 h after administration of apelin related analogues (25 nmol/kg body wt) in 18 h fasted mice fed a high-fat diet for 150 days. (A) Blood glucose and (B) plasma insulin was measured before and after i.p. administration of glucose (18 mmol/kg body wt) alone or in combination with apelin analogues. Values represent mean±SEM for eight mice (n=8). *P<0.05 and **P<0.01 compared to glucose alone. FIG. 11 illustrates tests conducted 8 h after administration of apelin related analogues (25 nmol/kg body wt) in 18 h fasted mice fed a high-fat diet for 150 days. (A) Blood glucose and (B) plasma insulin was measured before and after i.p. administration of glucose (18 mmol/kg body wt) alone or in combination with apelin analogues. Values represent mean±SEM for eight mice (n=8). *P<0.05 and **P<0.01 compared to glucose alone. FIG. 12 illustrates acute effects of fatty acid modified apelin analogues on glucose-lowering and insulin release in high fat fed Swiss NIH mice with dietary-induced diabetes. (A) Blood glucose and (B) plasma insulin concentrations were measured prior to and after i.p. administration of glucose alone (18 mmol/kg body weight), or in combination with apelin analogues (25 nmol/kg body weight) in 18 h fasted mice fed a high-fat diet for 150 days. Values represent mean±SEM for eight mice (n=8). *P<0.05, compared to glucose alone. FIG. 13 illustrates tests conducted 16 h after administration of fatty acid apelin analogues (25 nmol/kg body wt) in mice fed a high-fat diet for 150 days. (A) Blood glucose and (B) plasma insulin was measured before and after i.p. administration of glucose (18 mmol/kg body wt) alone or in combination with apelin analogues. Values represent mean±SEM for eight mice (n=8). *P<0.05, **P<0.01 and ***P<0.001 compared to glucose alone. NIH Swiss mice (Harlan UK Ltd., Blackthorne, UK) were derived from a nucleus colony obtained from the National Institute of Health, Bethesda, Md., USA. One group of mice were maintained on a standard rodent diet (10% fat, 30% protein, 60% carbohydrate; percent of total energy 12.99 kJ/g, Trouw Nutrition, Cheshire, UK) and used as a model of normal glycaemia. Other NIH Swiss mice were maintained on a high fat diet (45% fat, 20% protein, 35% carbohydrate; percent of total energy 26.15 […], UK) from 8 weeks of age for 150 days to produce a model of diet induced obesity-diabetes. […] All mice were housed in an air-conditioned room maintained at 22±2° C. with a 12 h light: 12 h dark cycle (08:00-20:00 h), were singly caged, and selected for experimental groups according to body weight and non-fasted blood glucose. Drinking water and diet were freely available. All animal studies were performed in accordance with the UK Animals (Scientific Procedures) Act 1986. For acute in vivo studies, blood samples were collected from the cut tip of the tail vain of fasted, conscious mice into fluoride/heparin coated glucose microcentrifuge tubes (Sarstedt, Germany) immediately prior to (t=0) and at 15, 30, 60 and 105 min following i.p. injection of glucose ([…]).

[3] = NIH Swiss, mouse, plasma, pH 7.4
[4] = acute, alone and in combination, each 25 nmol/kg i.p. with glucose, Table 5
[5] = acute, peptide 25 nmol/kg i.p. with glucose 18 mmol/kg, Table 4
[6] = following a 2 h delay, 25 nmol/kg
[7] = following a 8 h delay, 25 nmol/kg
[8] = fatty acid derived agonists, 16 h delayed i.p. glucose tolerance test, 25 nmol/kg
[9] = fatty acid derived agonists, acute i.p. glucose tolerance test, 25 nmol/kg

Row | SMILES | Degradation fragment, Peak 1 [1] | Degradation fragment, Peak 2 [1] | Rank order of stability [1] | half-life at 263 µg/mL [1, 3] [min] | remaining at 4 h, 263 µg/mL [1, 3] [%] | Rank order on basis of anti-hyperglycaemic efficacy ([2]; acute, Table 4) | Glucose lowering, where glucose alone = 100% [2, 4] | Insulin secretion, where glucose alone = 100% [2, 4] | Blood glucose as percent of glucose-alone control (lower = stronger glucose lowering) [2, 5] | Insulin secretion, where glucose alone = 100% [2, 5] | Effect on the glucose lowering properties of (Tyr^13)apelin-13 and apelin-13-amide [2] | also measured
1 | CSCC[C@H](NC(=O)[C@@H]1CCCN1C(=O)CNC(=O)[C@H](CCCCN)NC(=O)[C@H](Cc1c[nH]cn1)NC(=O)[C@H](CO)NC(=O)[C@H](CC(C)C)NC(=O)[C@H](CCCNC(=N)N)NC(=O)[C@@H]1CCCN1C(=O)[C@H](CCCNC(=N)N)NC(=O)[C@@H](N)CCC(N)=O)C(=O)N1CCC[C@H]1C(=O)N[C@@H](C)C(=O)O [(Ala^13)apelin-13, reference compound] | (Ala^13)apelin-13 (1-8) | (Ala^13)apelin-13 (1-11) | 8 | 618 | 70.5 ± 2.2 | 9 | 118% (*) | 74% (*) | 118% (*) | 74% (**) | blocked the glucose lowering properties | 
2 | CSCC[C@H](NC(=O)[C@@H]1CCCN1C(=O)CNC(=O)[C@H](CCCCN)NC(=O)[C@H](Cc1c[nH]cn1)NC(=O)[C@H](CO)NC(=O)[C@H](CC(C)C)NC(=O)[C@H](CCCNC(=N)N)NC(=O)[C@@H]1CCCN1C(=O)[C@H](CCCNC(=N)N)NC(=O)[C@@H]1CCC(=O)N1)C(=O)N1CCC[C@H]1C(=O)N[C@H](C(=O)O)C(C)C [pGlu(Val^13)apelin-13, pGlu (Val^13)apelin-13] | (1-6) | (1-12) | 9 | 588 | 76.2 ± 1.9 | 8 |  |  | 116% (*) | 75% (**) |  | 
3 | CSCC[C@H](NC(=O)[C@@H]1CCCN1C(=O)CNC(=O)[C@H](CCCCN)NC(=O)[C@H](Cc1c[nH]cn1)NC(=O)[C@H](CO)NC(=O)[C@H](CC(C)C)NC(=O)[C@H](CCCNC(=N)N)NC(=O)[C@@H]1CCCN1C(=O)[C@H](CCCNC(=N)N)NC(=O)[C@@H](N)CCC(N)=O)C(=O)N1CCC[C@H]1C(=O)N[C@@H](Cc1ccc(O)cc1)C(=O)O [(Tyr^13)apelin-13] | (Tyr^13)apelin-13 (1-7) | (Tyr^13)apelin-13 (1-12) | 10 | 510 | 76.7 ± 1.3 | 4 | 77% (*) | 131% (*) | 77% (*) | 131% (*) |  | Rank order on basis of anti-hyperglycaemic efficacy ([2]; following a 2 h delay): 4; Blood glucose as percent of glucose-alone control (lower = stronger glucose lowering) [2, 6]: 85% ^; Insulin secretion, where glucose alone = 100% [2, 6]: 116% ^; Rank order on basis of anti-hyperglycaemic efficacy ([2]; following a 8 h delay): 4; Blood glucose as percent of glucose-alone control (lower = stronger glucose lowering) [2, 7]: 91% ^; Insulin secretion, where glucose alone = 100% [2, 7]: 104%
4 | CCCCCCCCCCCCCCCC(=O)N[C@@H](CCC(=O)NCCCC[C@H](NC(=O)[C@H](Cc1c[nH]cn1)NC(=O)[C@H](CO)NC(=O)[C@H](CC(C)C)NC(=O)[C@H](CCCNC(=N)N)NC(=O)[C@@H]1CCCN1C(=O)[C@H](CCCNC(=N)N)NC(=O)[C@@H](N)CCC(N)=O)C(=O)NCC(=O)N1CCC[C@H]1C(=O)N[C@@H](CCSC)C(=O)N1CCC[C@H]1C(=O)N[C@@H](Cc1ccc(O)cc1)C(=O)O)C(=O)O [Lys^8GluPAL(Tyr^13)apelin-13] |  |  | =1 | > 1440 | 100 |  |  |  |  |  |  | Half-life (t1/2) ([1]; NIH Swiss, mouse, plasma, 263 µg/mL, pH 7.4): >24 h; Rank order on basis of anti-hyperglycaemic efficacy ([2]; fatty acid derived agonists, 16 h delay): 3; Blood glucose as percent of glucose-alone control (lower = stronger glucose lowering) [2, 8]: 91% ^; Insulin secretion, where glucose alone = 100% [2, 8]: 126% (*); Rank order on basis of anti-hyperglycaemic efficacy ([2]; fatty acid derived agonists, acute): 3; Glucose lowering, where glucose alone = 100% [2, 9]: 93%; Insulin secretion, where glucose alone = 100% [2, 9]: 104%
5 | CSCC[C@H](NC(=O)[C@@H]1CCCN1C(=O)CNC(=O)[C@H](CCCCN)NC(=O)[C@H](Cc1cnc[nH]1)NC(=O)[C@H](CO)NC(=O)[C@H](CC(C)C)NC(=O)[C@H](CCCNC(=N)N)NC(=O)[C@@H]1CCCN1C(=O)[C@H](CCCNC(=N)N)NC(=O)[C@@H]1CCC(=O)N1)C(=O)N1CCC[C@H]1C(=O)N[C@@H](C)C(=O)O [pGlu(Ala^13)apelin-13, pGlu (Ala^13)apelin-13] | (1-7) |  | 6 | 666 | 74.4 ± 5.2 | 7 |  |  | 110% ^ | 86% (*) |  | 
6 | CSCC[C@H](NC(=O)[C@@H]1CCCN1C(=O)CNC(=O)[C@H](CCCCN)NC(=O)[C@H](Cc1c[nH]cn1)NC(=O)[C@H](CO)NC(=O)[C@H](CC(C)C)NC(=O)[C@H](CCCNC(=N)N)NC(=O)[C@@H]1CCCN1C(=O)[C@H](CCCNC(=N)N)NC(=O)[C@@H](N)CCC(N)=O)C(=O)N1CCC[C@H]1C(=O)N[C@H](C(=O)O)C(C)C [(Val^13)apelin-13] | (Val^13)apelin-13 (1-12) |  | 11 | 462 | 66.5 ± 1.1 | 10 | 124% (**) | 68% (**) | 124% (**) | 68% (*) | blocked the glucose lowering properties | 
